Reference: patent publication EP2217930B1, “MALDI MS-BASED HIGH-THROUGHPUT SCREENING METHOD FOR SUBSTANCES INHIBITING AGGREGATION OF ALZHEIMER'S AMYLOID BETA PEPTIDES” (Tallinn University of Technology, priority 2007, dated 2009)

What follows are substances tested against T1, Aβ42 (Homo sapiens, UniProt P05067) (assay: automatic MALDI-TOF MS high-throughput screening assay for inhibitors of Aβ42 aggregation (detection of monomeric Aβ42, insulin B chain as internal standard)). Settings: 35 selected substances tested; 5 µM Aβ42 in 20mM HEPES 0.1 M NaCl pH 7.5; monomeric Aβ42 detected by MALDI-TOF MS.
T1 construct: Both 40 and 42 amino acid amyloid beta peptides were purchased from rPeptide; purchased rPeptide (Bogart, USA)
T1 sequence (P05067 672-713 limits assumed): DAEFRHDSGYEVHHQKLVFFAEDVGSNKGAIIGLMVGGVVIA
Format: biochemical
Protocol: For every aggregation experiment Aβ42 solutions were prepared following the same procedure. The lyophilized peptide was taken out from the -80°C fridge, and incubated at room temperature until thawing. Cold 0.02% ammonium hydroxide was added to the peptide to get a final concentration of 10 µM. The solution was mixed on the vortex for a minute and put on ice. Before the beginning of the experiment the solution was mixed again for a shorter time. To start the experiment, the peptide stock solution was diluted in a ratio of 1:1 into the buffer, which contained various concentrations of a tested compound. All probes contained 5 µM Aβ42 in 20mM HEPES 0.1 M NaCl pH 7.5. Aβ42 solutions were always prepared shortly before the beginning of experiment.
First, 5 µM B chain solution in 60% AcN 0.3% TFA was prepared and added to the α-cyano matrix solution to generate a 10 mg/ml α-cyano, 0.25 µM B chain solution in 60% AcN 0.3% TFA. The solution was mixed on a vortex for a minute and then incubated at room temperature for 10 minutes. Solution was mixed again, centrifuged for 3 min at 6000 rpm and the supernatant was transferred into a clean vial. Shortly before the beginning of aggregation experiments, Aβ42 solutions were prepared and transferred to sequential wells of a 96-well plate.
Spots on MALDI plates were generated automatically by an Ettan Spotter (Amersham Biosciences, Sweden). Different spotting procedures were tested and best results were obtained using the following method: 0.5 µl sample + 1.5 µl matrix containing the internal calibrant - mixing 3 times with a volume of 1 µl.
The spots were air-dried and spectra were collected automatically with Voyager DE™ STR BioSpectrometry™Workstation (Applied Biosystems, USA) mass spectrometer. […] The spectra were processed with Data Explorer™ Software (Version 4; Applied Biosystems, USA).

Substance	inhibition of aggregation of Aβ42
Zn(CH3COO)2 [zinc]	inhibited aggregation of Aβ42
copper	inhibited aggregation of Aβ42
hemin	inhibits aggregation of Aβ42
